Data as given in US10179770B2, “Quinolines derivatives as novel anticancer agents” (GENOSCIENCE PHARMA, priority 2013, dated 2019).

Tests used:
Assay in all cases: NCI-60 screen (SRB)
Assay type in all cases: cell-based
[1] = system: SR; conditions: SR (Leukemia)
Method: (§1) The human tumor cell lines of the cancer screening panel are grown in RPMI 1640 medium containing 5% fetal bovine serum and 2 mM L-glutamine. For a typical screening experiment, cells are inoculated into 96 well microtiter plates in 100 μL at plating densities ranging from 5,000 to 40,000 cells/well depending on the doubling time of individual cell lines. After cell inoculation, the microtiter plates are incubated at 37° C., 5% CO2, 95% air and 100% relative humidity for 24 h prior to addition of experimental drugs.
(§2) After 24 h, two plates of each cell line are fixed in situ with TCA, to represent a measurement of the cell population for each cell line at the time of drug addition (Tz). Experimental drug is solubilized in dimethyl sulfoxide at 400-fold the desired final maximum test concentration and stored frozen prior to use. At the time of drug addition, an aliquot of frozen concentrate is thawed and diluted to twice the desired final maximum test concentration with complete medium containing 50 μg/ml gentamicin. Additional four, 10-fold or ½ log serial dilutions are made to provide a total of five drug concentrations plus control. Aliquots of 100 μl of these different drug dilutions are added to the appropriate microtiter wells already containing 100 μl of medium, resulting in the required final drug concentrations.
(§3) Following drug addition, the plates are incubated for an additional 48 h at 37° C., 5% CO2, 95% air, and 100% relative humidity. For adherent cells, the assay is terminated by the addition of cold TCA. Cells are fixed in situ by the gentle addition of 50 μl of cold 50% (w/v) TCA (final concentration, 10% TCA) and incubated for 60 minutes at 4° C. The supernatant is discarded, and the plates are washed five times with tap water and air dried. Sulforhodamine B (SRB) solution (100 μl) at 0.4% (w/v) in 1% acetic acid is added to each well, and plates are incubated for 10 minutes at room temperature. After staining, unbound dye is removed by washing five times with 1% acetic acid and the plates are air dried. Bound stain is subsequently solubilized with 10 mM trizma base, and the absorbance is read on an automated plate reader at a wavelength of 515 nm. For suspension cells, the methodology is the same except that the assay is terminated by fixing settled cells at the bottom of the wells by gently adding 50 μl of 80% TCA (final concentration, 16% TCA). Using the seven absorbance measurements [time zero, (Tz), control growth, (C), and test growth in the presence of drug at the five concentration levels (Ti)], the percentage growth is calculated at each of the drug concentrations levels.
(§4) Percentage growth inhibition is calculated as: [(Ti−Tz)/(C−Tz)]×100 for concentrations for which Ti>/=Tz (1) [(Ti−Tz)/Tz]×100 for concentrations for which Ti<Tz (2)
(§5) Growth inhibition of 50% (GI50) is calculated from [(Ti−Tz)/(C−Tz)]×100=50 (3)
(§6) which is the drug concentration resulting in a 50% reduction in the net protein increase (as measured by SRB staining) in control cells during the drug incubation.
(§7) The drug concentration resulting in total growth inhibition (TGI) is calculated from Ti=Tz (4)
(§8) The LC50 (concentration of drug resulting in a 50% reduction in the measured protein at the end of the drug treatment as compared to that at the beginning) indicating a net loss of cells following treatment is calculated from [(Ti−Tz)/Tz]×100=−50 (5)
(§9) Values are calculated for each of these three parameters if the level of activity is reached; however, if the effect is not reached or is exceeded, the value for that parameter is expressed as greater or less than the maximum or minimum concentration tested.

[2] = system: RXF393; conditions: RXF393 (Renal)
Method: as §1, §2, §3, §4, §5, §6, §7, §8, §9

[3] = system: ACHN; conditions: ACHN (Renal)
Method: as §1, §2, §3, §4, §5, §6, §7, §8, §9

[4] = system: BT-549; conditions: BT-549 (Breast)
Method: as §1, §2, §3, §4, §5, §6, §7, §8, §9

[5] = system: K-562; conditions: K-562 (Leukemia)
Method: as §1, §2, §3, §4, §5, §6, §7, §8, §9

[6] = system: LOX IMVI; conditions: LOX IMVI (Melanoma)
Method: as §1, §2, §3, §4, §5, §6, §7, §8, §9

[7] = system: A549/ATCC; conditions: A549/ATCC (Non-Small Cell Lung)
Method: as §1, §2, §3, §4, §5, §6, §7, §8, §9

[8] = system: HS 578T; conditions: HS 578T (Breast)
Method: as §1, §2, §3, §4, §5, §6, §7, §8, §9

[9] = system: UO-31; conditions: UO-31 (Renal)
Method: as §1, §2, §3, §4, §5, §6, §7, §8, §9

[10] = system: HCT-15; conditions: HCT-15 (Colon)
Method: as §1, §2, §3, §4, §5, §6, §7, §8, §9

[11] = system: CCRF-CEM; conditions: CCRF-CEM (Leukemia)
Method: as §1, §2, §3, §4, §5, §6, §7, §8, §9

[12] = system: UACC-257; conditions: UACC-257 (Melanoma)
Method: as §1, §2, §3, §4, §5, §6, §7, §8, §9

[13] = system: NCI-H522; conditions: NCI-H522 (Non-Small Cell Lung)
Method: as §1, §2, §3, §4, §5, §6, §7, §8, §9

[14] = system: HCT-116; conditions: HCT-116 (Colon)
Method: as §1, §2, §3, §4, §5, §6, §7, §8, §9

[15] = system: NCI/ADR-RES; conditions: NCI/ADR-RES (Ovarian)
Method: as §1, §2, §3, §4, §5, §6, §7, §8, §9

[16] = system: SN12C; conditions: SN12C (Renal)
Method: as §1, §2, §3, §4, §5, §6, §7, §8, §9

[17] = system: SF-539; conditions: SF-539 (CNS)
Method: as §1, §2, §3, §4, §5, §6, §7, §8, §9

[18] = Homo sapiens, read-out: LC50 (the source's name)

CCN(CC)C1CCN(C(C)c2cc(-c3ccccc3)nc3ccccc23)CC1.Cl.Cl (stereo not drawn) [XIX-3, 2-phenyl-4-{1-[4-(N,N-diethylamino)piperidin-1-yl]-eth-1-yl}quinoline dihydrochloride]
GI50 ([1]; Homo sapiens): 3 µM
CC50 [1, 18]: 49 µM
TGI [1]: 7 µM
Growth percent at 10 μM [1]: × (cell growth 0 > % > −20)
GI50 ([2]; Homo sapiens, RXF 393): 4 µM
CC50 ([2]; Homo sapiens, RXF 393, read-out: LC50 (the source's name)): 17 µM
TGI [2]: 17 µM
TGI [3]: 23 µM
Growth percent at 10 μM [3]: + (cell growth 60 > % < 80)
GI50 ([3]; Homo sapiens): 11 µM
LC50 (concentration causing 50% net cell kill) ([3]; Homo sapiens): 50 µM
TGI [4]: 27 µM
Growth percent at 10 μM [4]: + (cell growth 60 > % < 80)
GI50 ([4]; Homo sapiens): 13 µM
CC50 [4, 18]: 56 µM
GI50 ([5]; Homo sapiens, K562): 2 µM
CC50 ([5]; Homo sapiens, K562, read-out: LC50 (the source's name)): 15 µM
TGI [5]: 5 µM
Growth percent at 10 μM [5]: × (cell growth 0 > % > −20)
GI50 ([6]; Homo sapiens): 4 µM
CC50 [6, 18]: 44 µM
TGI [6]: 15 µM
Growth percent at 10 μM [6]: ++ (cell growth 40 > % < 60)
TGI [7]: 31 µM
Growth percent at 10 μM [7]: + (cell growth 60 > % < 80)
GI50 ([7]; Homo sapiens): 15 µM
CC50 [7, 18]: 63 µM
TGI [8]: 35 µM
Growth percent at 10 μM [8]: + (cell growth 60 > % < 80)
GI50 ([8]; Homo sapiens): 11 µM
LC50 (concentration killing 50% of cells) ([8]; Homo sapiens): 100 µM
GI50 ([9]; Homo sapiens): 8 µM
CC50 [9, 18]: 22 µM
TGI [9]: 22 µM
Growth percent at 10 μM [9]: ++ (cell growth 40 > % < 60)
TGI [10]: 14 µM
Growth percent at 10 μM [10]: ++++ (cell growth % < 20)
GI50 ([10]; Homo sapiens): 3 µM
CC50 [10, 18]: 47 µM
TGI [11]: 25 µM
Growth percent at 10 μM [11]: ++ (cell growth 40 > % < 60)
GI50 ([11]; Homo sapiens): 9 µM
CC50 [11, 18]: 62 µM
GI50 ([12]; Homo sapiens): 2 µM
CC50 [12, 18]: 8 µM
TGI [12]: 4 µM
Growth percent at 10 μM [12]: ××× (cell growth −40 > % < −60)
GI50 ([13]; Homo sapiens): 15 µM
CC50 [13, 18]: 66 µM
TGI [13]: 32 µM
Growth percent at 10 μM [13]: +++ (cell growth 20 > % < 40)
TGI [14]: 19 µM
Growth percent at 10 μM [14]: ++ (cell growth 40 > % < 60)
GI50 ([14]; Homo sapiens): 5 µM
CC50 [14, 18]: 51 µM
GI50 ([15]; Homo sapiens): 12 µM
LC50 (concentration giving 50% net cell kill) ([15]; Homo sapiens): 56 µM
TGI [15]: 26 µM
Growth percent at 10 μM [15]: + (cell growth 60 > % < 80)
GI50 ([16]; Homo sapiens): 12 µM
LC50 (concentration giving 50% net cell kill) ([16]; Homo sapiens): 26 µM
TGI [16]: 26 µM
Growth percent at 10 μM [16]: + (cell growth 60 > % < 80)
GI50 ([17]; Homo sapiens): 11 µM
CC50 [17, 18]: 50 µM
TGI [17]: 23 µM
Growth percent at 10 μM [17]: ++ (cell growth 40 > % < 60)

CC(C)(C)NC1CCN(c2cc(-c3ccc(Cl)cc3)nc3ccccc23)CC1.Cl.Cl [XII-4, 2-(4-chloro-phenyl)-4-(4-N-tert-butylamino-piperidin-1-yl)quinoline dihydrochloride]
Growth percent at 10 μM [1]: ++++ (cell growth 0 > % < 20)
Growth percent at 10 μM ([2]; 10 μM): +++ (cell growth 20 > % < 40)
Growth percent at 10 μM [3]: + (cell growth 60 > % < 80)
Growth percent at 10 μM [4]: − (cell growth % > 80)
Growth percent at 10 μM [5]: × (cell growth 0 < % > −20)
Growth percent at 10 μM [6]: ++++ (cell growth 0 > % < 20)
Growth percent at 10 μM [7]: ++ (cell growth 40 > % < 60)
Growth percent at 10 μM [8]: + (cell growth 60 > % < 80)
Growth percent at 10 μM [9]: +++ (cell growth 20 > % < 40)
Growth percent at 10 μM [10]: ++++ (cell growth 0 > % < 20)
Growth percent at 10 μM [11]: +++ (cell growth 20 > % < 40)
Growth percent at 10 μM [12]: ××× (cell growth −40 < % > −60)
Growth percent at 10 μM [13]: + (cell growth 60 > % < 80)
Growth percent at 10 μM [14]: +++ (cell growth 20 > % < 40)
Growth percent at 10 μM [15]: + (cell growth 60 > % < 80)
Growth percent at 10 μM [16]: ++ (cell growth 40 > % < 60)
Growth percent at 10 μM [17]: ++ (cell growth 40 > % < 60)
